# EP4775577A1, “RAS INHIBITOR” (Tyligand Bioscience (Shanghai) Limited, priority 2023, dated 2025)
# Counter-ions that a name gives are not always drawn. Like-named read-outs stand apart in the source and are kept apart here.
# Key:
# [1] = test system: KRAS G12D mutant AGS cells; assay: Proliferation inhibition of AGS cells, CellTiter-Glo assay; format: cell-based, human
# How it was run: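 AGS cells at 1500 cells/well in F12K + 10% FBS were exposed for 3 days at 37°C to nine 3-fold dilutions from 10 µM top concentration, in duplicate. Viability read by CellTiter-Glo luminescence; IC50 (nM) from dose-response-inhibition fitting.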
# [2] = test system: KRAS G12S mutant A549 cells; assay: Proliferation inhibition of A549 cells, 3D CellTiter-Glo assay; format: cell-based; details: Homo sapiens, A549, 120 h, read-out: A549 IC50/nM
# Procedure: A549 cells (Nanjing Kebai Biotechnology Co., Ltd., catalog number CBP60084, adherent, culture medium (F12K Nutrient Mixture+10%FBS (GIBCO, Cat#10091-148) at 37°C, 5%CO2, and 95% humidity.
# 3D Cell Viability Assay: Cells in the logarithmic growth phase were harvested and counted using a platelet counter. Cell viability was assessed using the trypan blue exclusion method to ensure a viability of over 90%. The 3D cell culture medium was prepared by adding 1% MC (methylcellulose, Sigma, Cat#M0512) F-12K medium and 10% FBS. The cell concentration was adjusted to approximately 7407 cells/mL using the 3D medium, and the methylcellulose (MC) content was set to 0.65%. Then, 135 µL of cell suspension was added to each 96-well clear, flat-bottomed, black-walled plate (Greiner, Cat#655096). The cells in the 96-well plates were cultured overnight at 37°C with 5% CO2.
# Drug preparation for IC50 assay: A 10-fold drug solution was prepared using culture medium. […] of the drug solution was added to each well of a 96-well plate seeded with cells to achieve a working concentration of up to 10 µM, with a 3× dilution, and 9 concentrations. 2 replicate wells for each drug concentration were set. The cells in the drug-treated 96-well plates were cultured at 37°C and 5% CO^2 for additional5 days, then CTG assay (CellTiter-Glo® Luminescent Cell Viability Assay (Promega, Cat#G7573)) were performed.
# The cell plate was equilibrated to room temperature for 30 minutes and the CTG reagent was thawed. 75 µL of CTG solution was added to each well for detection, and the plate was shaken on an orbital shaker for 5 minutes to lyse the cells. The cell plate was placed at room temperature for 25 minutes to stabilize the cryo-luminescence signal and the cryo-luminescence value was read (EnVision® multi-plate reader, PerkinElmer#2105).
# Data was analyzed using GraphPad Prism software. The dose-response-inhibition equation was used to fit the data to obtain the dose-response curve, and the IC50 value (nM) was calculated accordingly. [formula]
# [3] = test system: KRAS G12V mutant NCI-H727 cells; assay: Proliferation inhibition of NCI-H727 cells, 3D CellTiter-Glo assay (Method B); format: cell-based, human; details: Method B, 3D culture with 0.65% methylcellulose, 5 days, CTG, read-out: NCI-H727 IC50/nM
# How it was run: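 Cells grown in 3D medium (RPMI-1640, 10% FBS, 0.65% methylcellulose) overnight, then treated 5 days at 37 °C, 5% CO2 with 9 threefold dilutions from 10 µM top working concentration, duplicate wells. CellTiter-Glo luminescence read; IC50 (nM) fitted by dose-response-inhibition equation.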
# [4] = Homo sapiens, AGS, 72 h, 3 days, CTG, read-out: AGS IC50/nM
"IC50 [1, 4] [nM]",IC50 [2] [nM],"IC50 ([3]; Homo sapiens, NCI-H727, 120 h) [nM]","IC50 ([1]; Homo sapiens, AGS, 72 h, read-out: AGS IC50/nM, 3 days, CTG) [nM]",SMILES,IC50 [3] [nM],"IC50 ([1]; 3 days, CTG, read-out: AGS IC50/nM) [nM]"
–,86.9,3.3,< 1.52,"CCc1cc2c(N3CCCn4nc(C(=O)N(C)C)c(Cl)c4C3)nc(OC[C@]3(C)CN(C)CC/C3=C\F)nc2c(F)c1-c1c(F)ccc2sc(N)c(C#N)c12 (single isomer, unassigned) [Example 163A]",–,–
1.5,101,4.4,–,"CN1CC/C(=C\F)[C@](C)(COc2nc(N3CCCn4nc(C(=O)N(C)C)cc4C3)c3cc(C(F)(F)F)c(-c4cccc5sc(N)c(C#N)c45)c(F)c3n2)C1 (single isomer, unassigned) [Example 8A]",–,–
1.6,16.5,< 1.5,–,"CN1CC[C@H](C(F)F)[C@](C)(COc2nc(N3CCOC[C@@](C)(O)C3)c3cc(C(F)(F)F)c(-c4cccc5sc(N)c(C#N)c45)c(F)c3n2)C1 (atropisomer, axis not shown) [Example 5A, (S)-2-amino-4-(2-(((3S,4S)-4-(difluoromethyl)-1,3-dimethylpiperidine-3-yl)methoxy)-8-fluoro-4-((S)-6-hydroxy-6-methyl-1,4-oxazol-4-yl)-6-(trifluoromethyl)quinazoline-7-yl)benzo[b]thiophene-3-carbonitrile]",–,–
< 1.5,82.4,2.1,–,"C[C@H]1CCn2nc(C(=O)N(C)C)cc2CN1c1nc(OC[C@]2(C)CN(C)CC/C2=C\F)nc2c(F)c(-c3c(F)ccc4sc(N)c(C#N)c34)c(C3CC3)cc12 (single isomer, unassigned) [Example 162A]",–,–
< 1.5,41.8,2.4,–,"[2H]C([2H])([2H])N1CC/C(=C\F)[C@](C)(COc2nc(N3CCCn4nc(C(=O)N(C)C)cc4C3)c3cc(C(F)(F)F)c(-c4c(F)ccc5sc(N)c(C#N)c45)c(F)c3n2)C1 (atropisomer, axis not shown) [Example 68A]",–,–
< 1.5,11.1,< 1.5,–,CN1CC/C(=C\F)[C@](C)(COc2nc(N3CCCn4nc(C(=O)N(C)C)c(Cl)c4C3)c3cc(C(F)(F)F)c(-c4c(F)ccc5sc(N)c(C#N)c45)c(F)c3n2)C1 [Example 160],–,–
199,–,419,–,"CCc1cc2c(N3Cc4cc(C(=O)N(C)C)nn4CC[C@@H]3C)nc(OC[C@]3(C)CN(C)CC/C3=C\F)nc2c(F)c1-c1c(C)ccc2[nH]ncc12 (single isomer, unassigned) [Example 172A]",–,–
< 1.5,–,< 1.5,–,"CCN1CC/C(=C\F)[C@](C)(COc2nc(N3Cc4cc(C(=O)N(C)C)nn4CC[C@@H]3C)c3cc(C(F)(F)F)c(-c4c(F)ccc5sc(N)c(C#N)c45)c(F)c3n2)C1 (single isomer, unassigned) [Example 248A]",–,–
–,–,–,–,"CN1CC/C(=C\F)[C@](C)(COc2nc(N3CCCn4nc(C(=O)N(C)C)cc4C3)c3cc(Cl)c(-c4c(F)ccc5sc(N)c(C#N)c45)c(F)c3n2)C1 (atropisomer, axis not shown; (Sa)) [Example 93B, (Sa)-5-(7-(2-amino-3-cyano-5-fluorobenzo[b]thiophene-4-yl)-6-chloro-8-fluoro-2-(((S,E)-4-(fluoromethylene)-1,3-dimethylpiperidine-3-yl)methoxy)quinazoline-4-yl)-N,N-dimethyl-5,6,7,8-tetrahydro-4H-pyrazolo[1,5-a][1,4]diazepine-2-formamide·formate]",191,178
20,–,47.7,–,CN1CC/C(=C\F)[C@](C)(COc2nc(N3CCCn4nc(C(=O)N(C)C)cc4C3)c3cc(C(F)F)c(-c4cccc5sc(N)c(C#N)c45)c(F)c3n2)C1 [Example 100],–,–
8.1,–,21.3,–,"CN1CC/C(=C\F)[C@](C)(COc2nc(N3CCCn4nc(C(=O)N(C)C)cc4C3)c3cc(C(F)(F)F)c(-c4cccc5sc(N)c(C#N)c45)c(F)c3n2)C1 [Example 8, 5-(7-(2-Amino-3-cyanobenzo[b]thiophene-4-yl)-8-fluoro-2-(((S,E)-4-(fluoromethylene)-1,3-dimethylpiperidine-3-yl)methoxy)-6-(trifluoromethyl)quinazoline-4-yl)-N,N-dimethyl-5,6,7,8-tetrahydro-4H-pyrazolo[1,5-a][1,4]diazepine-2-formamide]",–,–
< 1.5,–,< 1.5,–,"CCN1CC/C(=C\F)[C@](C)(COc2nc(N3Cc4c(OC)c(C(=O)N(C)C)nn4CC[C@@H]3C)c3cc(Cl)c(-c4c(F)ccc5sc(N)c(C#N)c45)c(F)c3n2)C1 (single isomer, unassigned) [Example 234A]",–,–
10.3,–,29.8,–,CN1CC/C(=C\F)[C@](C)(COc2nc(N3CCCn4nc(C(=O)N(C)C)c(N)c4C3)c3cc(C(F)(F)F)c(-c4cccc5sc(N)c(C#N)c45)c(F)c3n2)C1 [Example 120],–,–
15.8,–,27.1,–,[2H]C([2H])([2H])N1CC/C(=C\F)[C@](C)(COc2nc(N3CCCn4nc(C(=O)N(C)C)cc4C3)c3cc([N+](=O)[O-])c(-c4cccc5sc(N)c(C#N)c45)c(F)c3n2)C1 [Example 98],–,–
4.4,–,3.9,–,"[2H]C([2H])([2H])N1CC/C(=C\F)[C@](C)(COc2nc(N3Cc4cc(C(=O)N(C)CCOC)nn4CC[C@@H]3C)c3cc(CC)c(-c4c(F)ccc5sc(N)c(C#N)c45)c(F)c3n2)C1 (atropisomer, axis not shown) [Example 267A]",–,–
6.7,–,13.1,–,"CN1CC[C@H](C(F)F)[C@](C)(COc2nc(N3CCCn4nc(C(=O)N(C)C)cc4C3)c3cc(C(F)(F)F)c(-c4cccc5sc(N)c(C#N)c45)c(F)c3n2)C1 [Example 7, 5-(7-(2-Amino-3-cyanobenzo[b]thiophene-4-yl)-2-(((3S,4S)-4-(difluoromethyl)-1,3-dimethylpiperidine-3-yl)methoxy)-8-fluoro-6-(trifluoromethyl)quinazoline-4-yl)-N,N-dimethyl-5,6,7,8-tetrahydro-4H-pyrazolo[1,5-a][1,4]diazepine-2-formamide]",–,–

SMILES,"IC50 [1, 4] [nM]",IC50 [2] [nM],"IC50 ([3]; Homo sapiens, NCI-H727, 120 h) [nM]","IC50 ([1]; Homo sapiens, AGS, 72 h, read-out: AGS IC50/nM, 3 days, CTG) [nM]",IC50 [3] [nM],"IC50 ([1]; 3 days, CTG, read-out: AGS IC50/nM) [nM]"
[2H]C([2H])([2H])N1CC[C@H](C(F)F)[C@](C)(COc2nc(N3CCOC[C@@](C)(O)C3)c3cc(C(F)(F)F)c(-c4c(F)ccc5sc(N)c(C#N)c45)c(F)c3n2)C1 [Example 65A],1.5,26.1,–,–,–,–
"CCc1cc2c(N3Cc4cc(C(=O)N(C)C)nn4CC[C@@H]3C)nc(OC[C@]3(C)CN(CC)CC[C@@H]3C(F)F)nc2c(F)c1-c1c(F)ccc2sc(N)c(C#N)c12 (single isomer, unassigned) [Example 176A]",< 1.5,42.6,< 1.5,–,–,–
CCN1CC/C(=C\F)[C@](C)(COc2nc(N3CCCn4nc(C(=O)N(C)C)c(Cl)c4C3)c3cc(C(F)(F)F)c(-c4ncc(F)c5sc(N)c(C#N)c45)c(F)c3n2)C1 [Example 253],2.5,–,8.7,–,–,–
"CN1CC/C(=C\F)[C@](C)(COc2nc(N3CCOC[C@@](C)(O)C3)c3cc(Cl)c(-c4c(F)ccc5sc(N)c(C#N)c45)c(F)c3n2)C1 (atropisomer, axis not shown; (Ra)) [Example 85A, (Ra)-2-amino-4-(6-chloro-8-fluoro-2-(((S,E)-4-(fluoromethylene)-1,3-dimethylpiperidine-3-yl)methoxy)-4-((S)-6-hydroxy-6-methyl-1,4-oxazacycloheptane-4-yl)quinazoline-7-yl)-5-fluorobenzo[b]thiophene-3-carbonitrile formate·formic acid salt]",22.7,–,17.4,–,–,–
CCN1CC/C(=C\F)[C@](C)(COc2nc(N3CCCn4nc(C(=O)N(C)C)c(Cl)c4C3)c3cc(Cl)c(-c4c(F)ccc5sc(N)c(C#N)c45)c(C)c3n2)C1 [Example 180],10.6,–,11.3,–,–,–
[2H]C([2H])([2H])N1CCC(=CF)C(C)(COc2nc(N3CCCn4nc(C(=O)N(C)C)c(Cl)c4C3)c3cc(CC)c(-c4c(F)ccc5sc(N)c(C#N)c45)c(Cl)c3n2)C1 (centres unmarked) [Example 190],< 1.5,–,3.2,–,–,–
Cc1c(-c2ncc(F)c3sc(N)c(C#N)c23)c(Cl)cc2c(N3Cc4cc(C(=O)N(C)C)nn4CC[C@@H]3C)nc(OC[C@]3(C)CN(C)CC/C3=C\F)nc12 [Example 171A],4.7,–,4.1,–,–,–
